Measured values published in patent US9662338B2, “Formulations of viloxazine” (Supernus Pharmaceuticals, Inc., priority 2012, dated 2017).

Details: steady state plasma levels at both 150 mg and 300 mg total daily dose; IR capsules TID
Description: A randomized, double blind, multicenter, placebo controlled clinical study was conducted to evaluate the efficacy of viloxazine in adults with ADHD. […] Subjects not tolerating the 300 mg/day dose were allowed at any time of the treatment phase to down titrate to 1 capsule TID for a total daily dose of 150 mg viloxazine base. […] Plasma samples were obtained up to six hours following dosing.

## CCOc1ccccc1OCC1CNCCO1 (racemic) [viloxazine, (RS)-2-[(2-ethoxyphenoxy)methyl]morpholine]
  clinical efficacy in adults with ADHD: demonstrated clinical efficacy
